Results from patent EP0496617B1, “Adenosine kinase inhibitors” (priority 1991, dated 1992).

What was measured:
isolated rat hearts = settings: perfused with the compound alone; normoxic, hypoxic, anoxic or ischemic conditions; cited from earlier work
rat brain slices = settings: cited from earlier work
guinea pig brain slices = settings: cited from earlier work
dog hearts = settings: cited from earlier work
mice = settings: cited from earlier work
anesthetized rats = settings: cited from earlier work
rat cardiomyocytes = settings: inhibition of ADA together with adenosine kinase; cited from earlier work
[1] = tested on: Isolated guinea pig hearts; settings: added to the perfusion medium in the presence of EHNA; cited from earlier work
[2] = tested on: human umbillical vein endothelial cells; experiment: Inhibition of neutrophil adherence to endothelial cells; assay type: cell-based; settings: fMLP-stimulated human neutrophils, 2 hours at 37°C; reversed by adenosine deaminase; Figure 2
Procedure: The ability of an adenosine kinase inhibitor to affect neutrophil adherence to fibroblasts and endothelial cells was evaluated in a cell culture model.
These incubations were carried out in the presence of fMLP-stimulated human neutrophils isolated from whole blood (1.25 x 10^6/ml) with or without adenosine deaminase (0.125 U/ml). At the end of the incubation, the medium was removed and the monolayers of fibroblasts or endothelial cells and adherent neutrophils were fixed by addition of formaldehyde (3.7%) and, after washing to remove non-adherent neutrophils, adherent neutrophils were stained with Weigart's hematoxylin and counted under a light microscope.

Male Swiss Webster mice = experiment: PTZ-induced seizures; assay type: in vivo; settings: IP at doses of 1, 5 and 10 mg/kg, 45 minutes before PTZ; Figure 4 A
Procedure: The ability of selected adenosine kinase inhibitors to influence PTZ-induced seizures was evaluated in an experimental animal model.
[…] After injections of the convulsant, animals were isolated in separate cages and observed for the onset of seizure.

rats = experiment: Electroshock-induced seizures; assay type: in vivo; settings: for No. of Animals (protected/tested): 1 hour before electroshock
Procedure: The ability of the adenosine kinase inhibitors to influence electroshock-induced seizures was also evaluated in an experimental model.
After 1 hour, corneal electrodes were applied to the eyes of each animal and an electrical stimulus of 160 mA delivered for 0.2 seconds. Animals were isolated in separate cages and observed for seizure. Abolition of the hindleg tonic extensor component is taken as the end point for this test and reflects ability of the compound to prevent seizure spread.

Row | Structure (SMILES) | perfusate adenosine concentration (isolated rat hearts) | adenosine uptake (rat brain slices) | adenosine uptake (guinea pig brain slices) | effects in ischemia and reperfusion (dog hearts) | body temperature (mice) | flaccidity and spontaneous locomotor activity (mice) | blood pressure and heart rate (anesthetized rats) | increase in adenosine release (rat cardiomyocytes) [fold] | increase of adenosine release [1] [fold] | neutrophil adhesion to endothelial cells [2] | PTZ induced seizures (Male Swiss Webster mice) | No. of Animals (protected/tested) (rats; 0.05 mg/kg orally) | No. of Animals (protected/tested) (rats; 0.10 mg/kg orally) | ED50 (rats; Rattus norvegicus, po, 1 h, orally, rats, from the data of Table E, read-out: ED50 for protection of electroshock-induced seizures) [mg/kg]
1 | Nc1ncnc2c1c(I)cn2[C@@H]1O[C@H](CO)[C@@H](O)[C@H]1O [5-iodotubercidin, reference compound] | no increase in perfusate adenosine concentration | inhibited | inhibited | inconsistent effects | hypothermia | pronounced general flaccidity and much-reduced spontaneous locomotor activity | decrease blood pressure and heart rate |  |  |  |  |  |  | 
2 | NC[C@H]1O[C@@H](n2cnc3c(N)ncnc32)[C@H](O)[C@@H]1O [GP-1-238, 5'-amino-5'-deoxyadenosine] |  |  |  |  |  |  |  | 6 | 15 |  |  |  |  | 
3 | C[C@H]1O[C@@H](n2cc(I)c3c(N)ncnc32)[C@H](O)[C@@H]1O [GP-1-456, 5'-deoxy-5-iodotubercidin] |  | inhibited | inhibited |  | hypothermia | pronounced general flaccidity and much-reduced spontaneous locomotor activity | decrease blood pressure and heart rate |  |  | inhibit neutrophil adhesion to endothelial cells | dose-dependent inhibition | 1/8 | 2/8 | 0.18
